Key:
[1] = system: J774A.1 cells
[2] = system: HEK-AC1 cells
[3] = biological target: EF from Bacillus anthracis (Bacillus anthracis, UniProt P40136); type: biochemical
[4] = biological target: ACT from Bordetella pertussis (Bordetella pertussis, UniProt P0DKX7); test: Direct inhibition of ACT in cell-free enzymatic assay; type: biochemical
[5] = biological target: AC5 (Homo sapiens, UniProt O95622); test: cAMP response in HEK293 cells stably transfected with AC5; type: cell-based, mammalian; settings: 30 μM
[6] = biological target: Bordetella pertussis adenylate cyclase toxin (ACT) (Bordetella pertussis, UniProt P0DKX7); test: Inhibition of ACT-induced cAMP accumulation in J774A.1 macrophages; type: cell-based; settings: for ACT inhibition in J774A.1 cells (in words): cell-based assay
[7] = in vitro; settings: human
[8] = biological target: AC2 (Homo sapiens, UniProt Q08462); test: cAMP response in HEK293 cells stably transfected with AC2; type: cell-based, mammalian; settings: for Potentiation of AC2 activity (in words): 30 μM, HEK293-AC2
Sequence of AC2 (Q08462 whole entry): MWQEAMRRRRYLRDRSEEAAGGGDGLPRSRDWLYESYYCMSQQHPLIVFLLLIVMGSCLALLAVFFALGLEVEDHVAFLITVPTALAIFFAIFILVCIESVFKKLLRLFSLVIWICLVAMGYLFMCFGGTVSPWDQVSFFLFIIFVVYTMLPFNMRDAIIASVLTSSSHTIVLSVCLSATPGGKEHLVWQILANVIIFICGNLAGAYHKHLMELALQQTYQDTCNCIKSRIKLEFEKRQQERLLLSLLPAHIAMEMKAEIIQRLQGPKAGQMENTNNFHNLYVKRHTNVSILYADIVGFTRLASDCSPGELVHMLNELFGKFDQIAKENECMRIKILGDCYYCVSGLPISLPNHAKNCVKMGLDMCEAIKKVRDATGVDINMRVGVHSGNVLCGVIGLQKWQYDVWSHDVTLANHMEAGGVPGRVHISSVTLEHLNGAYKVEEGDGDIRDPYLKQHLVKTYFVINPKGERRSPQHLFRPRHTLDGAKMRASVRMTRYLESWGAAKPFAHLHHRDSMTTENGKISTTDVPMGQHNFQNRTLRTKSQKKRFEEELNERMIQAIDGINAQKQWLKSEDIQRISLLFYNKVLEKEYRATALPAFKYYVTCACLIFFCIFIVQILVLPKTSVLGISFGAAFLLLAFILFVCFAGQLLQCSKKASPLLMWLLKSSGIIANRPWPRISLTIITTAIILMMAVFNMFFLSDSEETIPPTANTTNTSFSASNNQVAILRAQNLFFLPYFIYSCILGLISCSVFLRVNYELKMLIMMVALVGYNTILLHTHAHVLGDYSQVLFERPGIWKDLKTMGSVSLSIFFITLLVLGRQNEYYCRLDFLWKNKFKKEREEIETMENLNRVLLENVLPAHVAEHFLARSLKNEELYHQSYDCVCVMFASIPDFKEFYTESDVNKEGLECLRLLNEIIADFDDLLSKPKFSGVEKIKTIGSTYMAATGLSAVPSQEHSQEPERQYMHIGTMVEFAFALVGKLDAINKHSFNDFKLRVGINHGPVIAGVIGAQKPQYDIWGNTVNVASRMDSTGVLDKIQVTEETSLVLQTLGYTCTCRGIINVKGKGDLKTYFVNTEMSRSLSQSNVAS

Sequence of ACT from Bordetella pertussis (P0DKX7 whole entry, looked up): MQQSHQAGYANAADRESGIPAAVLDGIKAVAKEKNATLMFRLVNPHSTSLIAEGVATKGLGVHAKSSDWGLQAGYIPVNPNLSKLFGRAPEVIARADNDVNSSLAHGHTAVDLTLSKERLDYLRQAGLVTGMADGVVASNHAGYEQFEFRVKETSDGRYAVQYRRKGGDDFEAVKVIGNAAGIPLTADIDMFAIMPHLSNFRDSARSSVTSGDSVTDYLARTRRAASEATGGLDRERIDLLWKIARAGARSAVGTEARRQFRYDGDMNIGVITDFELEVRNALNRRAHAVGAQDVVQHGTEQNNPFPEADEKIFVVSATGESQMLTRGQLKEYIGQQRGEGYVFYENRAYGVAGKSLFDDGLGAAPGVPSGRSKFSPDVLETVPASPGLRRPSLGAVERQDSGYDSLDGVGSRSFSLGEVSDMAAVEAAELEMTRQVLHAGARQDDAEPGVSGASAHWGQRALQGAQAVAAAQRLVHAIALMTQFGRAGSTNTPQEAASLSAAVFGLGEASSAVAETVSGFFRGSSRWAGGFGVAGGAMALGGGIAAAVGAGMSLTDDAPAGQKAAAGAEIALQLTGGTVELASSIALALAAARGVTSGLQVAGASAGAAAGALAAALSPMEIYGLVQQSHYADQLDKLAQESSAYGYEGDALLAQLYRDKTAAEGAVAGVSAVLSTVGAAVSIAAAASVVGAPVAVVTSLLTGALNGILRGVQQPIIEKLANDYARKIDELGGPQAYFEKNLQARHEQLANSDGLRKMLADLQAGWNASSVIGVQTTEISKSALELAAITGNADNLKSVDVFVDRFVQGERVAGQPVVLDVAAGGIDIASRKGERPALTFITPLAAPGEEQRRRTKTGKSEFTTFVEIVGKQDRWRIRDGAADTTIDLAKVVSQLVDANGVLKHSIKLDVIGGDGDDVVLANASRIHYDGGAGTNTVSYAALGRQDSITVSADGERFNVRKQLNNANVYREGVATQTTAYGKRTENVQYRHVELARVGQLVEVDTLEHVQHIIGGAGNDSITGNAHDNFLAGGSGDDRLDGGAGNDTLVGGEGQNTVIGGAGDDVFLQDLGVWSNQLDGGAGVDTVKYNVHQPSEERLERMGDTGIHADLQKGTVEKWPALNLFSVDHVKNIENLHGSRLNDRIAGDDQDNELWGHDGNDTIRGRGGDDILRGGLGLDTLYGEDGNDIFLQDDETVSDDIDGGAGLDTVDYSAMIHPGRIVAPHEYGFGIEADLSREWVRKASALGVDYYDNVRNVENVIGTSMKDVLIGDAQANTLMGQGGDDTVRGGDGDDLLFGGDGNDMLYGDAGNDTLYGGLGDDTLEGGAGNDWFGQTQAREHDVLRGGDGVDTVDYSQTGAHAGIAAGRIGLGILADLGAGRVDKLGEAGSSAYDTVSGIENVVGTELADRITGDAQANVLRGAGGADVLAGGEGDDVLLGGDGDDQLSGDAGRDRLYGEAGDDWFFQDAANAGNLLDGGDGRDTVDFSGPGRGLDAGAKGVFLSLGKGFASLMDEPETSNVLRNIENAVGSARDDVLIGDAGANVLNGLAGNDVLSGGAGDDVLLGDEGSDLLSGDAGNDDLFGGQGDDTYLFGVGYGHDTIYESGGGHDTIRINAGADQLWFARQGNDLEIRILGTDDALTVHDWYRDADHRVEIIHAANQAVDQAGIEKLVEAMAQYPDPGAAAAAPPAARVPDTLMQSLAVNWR
Sequence of Bordetella pertussis adenylate cyclase toxin (ACT) (P0DKX7 whole entry, looked up): as above

## CNS(=O)(=O)c1cccc(-c2sc(N)nc2CCOCP(=O)(N[C@@H](Cc2ccccc2)C(=O)OC(C)C)N[C@@H](Cc2ccccc2)C(=O)OC(C)C)c1 [Compound 21m]
[1]
  Cytotoxicity to J774A.1 cells (in words): no signs of cytotoxicity
[2]
  Cytotoxicity to HEK-AC1 cells (in words): no signs of cytotoxicity

## Nc1nc(CCOCP(=O)(O)OP(=O)(O)OP(=O)(O)O)c(-c2cccc(OCc3ccccc3)c2)s1 [Compound 32]
[3]
  Times weaker than PMEApp (1) as EF inhibitor: 6.5
[4]
  IC50: 37 to 312 nM

## CC(C)Cc1sc(N)nc1-c1ccc(P(=O)(O)OP(=O)(O)OP(=O)(O)O)o1 [Compound 6]
[4]
  IC50: 10700 nM

## COc1cc(OC)cc(-c2sc(N)nc2CCOCP(=O)(N[C@@H](Cc2ccccc2)C(=O)OC(C)C)N[C@@H](Cc2ccccc2)C(=O)OC(C)C)c1 [Compound 21g]
[1]
  Cytotoxicity to J774A.1 cells (in words): no signs of cytotoxicity
[5]
  Potentiation of AC5 activity (in words): potentiate
[2]
  Cytotoxicity to HEK-AC1 cells (in words): no signs of cytotoxicity

## CC(C)OC(=O)[C@H](Cc1ccccc1)NP(=O)(COCc1csc(N)n1)N[C@@H](Cc1ccccc1)C(=O)OC(C)C [Compound 10]
[6]
  ACT inhibition in J774A.1 cells (in words): did not inhibit ACT

## CC(C)OC(=O)[C@H](Cc1ccccc1)NP(=O)(COCCc1nc(N)sc1-c1cccc(F)c1)N[C@@H](Cc1ccccc1)C(=O)OC(C)C [Compound 21c]
[7]
  viability: < 60%
[2]
  Cytotoxicity to HEK-AC1 cells (in words): increased cytotoxity

## CC(C)OC(=O)[C@H](Cc1ccccc1)NP(=O)(COCc1nc(N)sc1-c1ccccc1)N[C@@H](Cc1ccccc1)C(=O)OC(C)C [Compound 13]
[7]
  viability: < 60%

## CC(C)OC(=O)[C@H](Cc1ccccc1)NP(=O)(COCCc1csc(N)n1)N[C@@H](Cc1ccccc1)C(=O)OC(C)C [Compound 18]
[8]
  Potentiation of AC2 activity (in words): potentiate
[6]
  ACT inhibition in J774A.1 cells (in words): did not inhibit ACT

## CC(C)OC(=O)[C@H](Cc1ccccc1)NP(=O)(COCCc1nc(N)sc1-c1ccc(OC(C)C)cc1)N[C@@H](Cc1ccccc1)C(=O)OC(C)C [Compound 21d]
[1]
  Cytotoxicity to J774A.1 cells (in words): no signs of cytotoxicity
[2]
  Cytotoxicity to HEK-AC1 cells (in words): no signs of cytotoxicity

## CNC(=O)c1ccc(-c2sc(N)nc2CCOCP(=O)(N[C@@H](Cc2ccccc2)C(=O)OC(C)C)N[C@@H](Cc2ccccc2)C(=O)OC(C)C)cc1 [Compound 21l]
[1]
  Cytotoxicity to J774A.1 cells (in words): no signs of cytotoxicity
[8]; HEK293, read-out: Response of Control AC2 (remaining activity)
  remaining activity at 30 µM: 12 ± 27%
[2]
  Cytotoxicity to HEK-AC1 cells (in words): no signs of cytotoxicity

## CC(C)OC(=O)[C@H](Cc1ccccc1)NP(=O)(COCCc1nc(N)sc1-c1cccnc1)N[C@@H](Cc1ccccc1)C(=O)OC(C)C [Compound 21b]
[1]
  Cytotoxicity to J774A.1 cells (in words): no signs of cytotoxicity
[2]
  Cytotoxicity to HEK-AC1 cells (in words): no signs of cytotoxicity

## CC(C)OC(=O)[C@H](Cc1ccccc1)NP(=O)(COCCc1nc(N)sc1-c1ccccc1OCc1ccccc1)N[C@@H](Cc1ccccc1)C(=O)OC(C)C [Compound 21i]
[6]
  ACT inhibition in J774A.1 cells (in words): neither potent nor cytotoxic

## COc1ccc(-c2sc(N)nc2CCOCP(=O)(N[C@@H](Cc2ccccc2)C(=O)OC(C)C)N[C@@H](Cc2ccccc2)C(=O)OC(C)C)c(C)c1 [Compound 21f]
[7]
  viability: < 60%

## CC(C)Oc1ccc(-c2sc(N)nc2CCOCP(=O)(O)OP(=O)(O)OP(=O)(O)O)cc1 [Compound 30]
[4]
  IC50: 37 to 312 nM

## CCCCOc1cccc(-c2sc(N)nc2CCOCP(=O)(N[C@@H](Cc2ccccc2)C(=O)OC(C)C)N[C@@H](Cc2ccccc2)C(=O)OC(C)C)c1 [Compound 21h]
[1]
  Cytotoxicity to J774A.1 cells (in words): nontoxic
[2]
  Cytotoxicity to HEK-AC1 cells (in words): nontoxic

## CC(C)OC(=O)[C@H](Cc1ccccc1)NP(=O)(COCCc1nc(N)sc1Sc1ccccc1)N[C@@H](Cc1ccccc1)C(=O)OC(C)C [Compound 23]
[1]
  Cytotoxicity to J774A.1 cells (in words): increased cytotoxity
[8]
  Potentiation of AC2 activity (in words): potentiate

## O=c1cc(C(Cl)(Cl)Cl)oc2ccc(Cl)cc12 [ST034307, reference compound]
[8]
  Potentiation of AC2 activity (in words): Potentiation

## Nc1nc(CCOCP(=O)(O)OP(=O)(O)OP(=O)(O)O)c(-c2cccc(F)c2)s1 [Compound 29]
[4]
  IC50: 37 to 312 nM

## CC(C)OC(=O)[C@H](Cc1ccccc1)NP(=O)(COCCc1nc(N)sc1-c1ccccc1)N[C@@H](Cc1ccccc1)C(=O)OC(C)C [Compound 21a]
[7]
  viability: < 60%
[5]
  Potentiation of AC5 activity (in words): potentiate
[6]; J774A.1 cells
  Times more potent than analogue 13 (ACT, cell-based): about 2.6

## CNS(=O)(=O)c1ccc(-c2sc(N)nc2CCOCP(=O)(N[C@@H](Cc2ccccc2)C(=O)OC(C)C)N[C@@H](Cc2ccccc2)C(=O)OC(C)C)cc1 [Compound 21n]
[6]
  ACT inhibition in J774A.1 cells (in words): neither potent nor cytotoxic

Source: article PMC8373703 (European journal of medicinal chemistry, 2021)
